Data published in patent US10801065B2, “Methods of determining levels of exposure to radiation and uses thereof” (priority 2015, dated 2020).
“And” between values parts separate entries of the source, which are not always exact repeats. Equal values may be shown once.

Experiments:
Format in all cases: in vivo
lethally-irradiated mice = assay: Kaplan-Meier survival of mice given amifostine before lethal total body irradiation
Protocol: C57BL/6J male mice (10 weeks old) were obtained from Jackson Labs (Bar Harbor, Me.) and the mice were used in the experiments at an age of 12-13 weeks. Animals were exposed to total body irradiation in an irradiation pie cage (Braintree Scientific, Braintree, Mass.) at various doses. Irradiation was performed using a 137Cs source (Gamma Cell® 40 Exactor, Best Theratronics, Ottawa, Ontario).
Saline or amifostine was given to mice intraperitoneally at 250 mg/kg body weight 24 hours prior to 0 Gy- or 8 Gy-total body irradiation in a first set of experiments. In a second set of experiments, mice were left untreated or mice were administered saline or 200 mg/kg amifostine 45 minutes prior to 0 Gy- or 8.5 Gy-total body irradiation. Serum was collected from all mice at 24 hours after irradiation or a time point in the non-irradiated mice that would correspond to 24 hours after irradiation in the treated mice.
Validation with real-time qPCR: One-way ANOVA was used to confirm global significance. Dunnett's post-hoc testing procedure was used to compare miRNA levels in the irradiated+saline-group against three other experimental groups. Univariate comparisons were performed using the Student's t-test or the Student's t-test for paired samples. Pearson's correlation coefficient was used for correlation testing. Survival analysis was performed using the log-rank (Mantel-Cox) test.

[1] = test system: serum miRNAs miR-187-3p, miR-194-5p, miR-27a-3p, miR-30a-3p, miR-30c-5p; assay: Serum miRNA levels (qPCR) in mice given amifostine before total body irradiation; conditions: amifostine 250 mg/kg 24 hours prior to 0 Gy or 8 Gy-total body irradiation; sera 24 hours post-irradiation
Protocol: Peripheral blood was collected by retro-orbital bleeding after anesthesia. Up to 200 μL of blood was collected in DNAse/RNAse-free Eppendorf tubes and incubated at room temperature for 2 hours to allow clotting. Blood samples were then centrifuged in an Eppendorf 5415C centrifuge at 14000 RPM (15996 g) for 5 minutes at room temperature.
Total RNA was isolated from serum samples by using the miRCURY™ RNA Isolation Kit—Biofluids from 50 μL mouse serum as per the manufacturer's manual. […] Total RNA was eluted in 50 μL of RNAse-free H2O and stored at −80° C. Per the manufacturer's recommendations, input volumes for serum RNA were optimized for the cDNA synthesis reaction. cDNA was synthesized in 10 μL reactions using the Universal cDNA Synthesis Kit II and was diluted 50-fold in RNAse/DNAse-free H2O for use in quantitative PCR. The reagents for RNA extraction and cDNA synthesis were obtained from Exiqon (Vedbaek, Denmark).
Diluted cDNA was subjected to quantitative PCR analysis in Pick-N-Mix plates designed in a 96-well format. […] All reagents used for quantitative PCR were obtained from Exiqon (Vedbaek, Denmark). […]

[2] = test system: HuCD34+ humanized NSG mice, 4 Gy to 4.5 Gy total body irradiation; assay: Bone marrow cellularity, human CD45 positive cells and CFU-Cs in irradiated humanized mice given amifostine; conditions: amifostine 200 mg/kg prior to 4.0 Gy or 4.5 Gy total body irradiation vs saline
Protocol: Bone marrow was harvested as per protocols described in Parmar et al. (Stem Cells 28:1186-1195, 2010). Briefly, animals were dissected to isolate the femurs and tibia from the mouse hind limb. The extracted bones were flushed with a 23-gauge needle using Hank's Balanced Salt Solution (HBSS, Life Technologies, Grand Island, N.Y.) supplemented with 2% fetal bovine serum (FBS) and 1% 10 mM HEPES (Life Technologies) to obtain bone marrow. The cells were then passed through an 18 gauge needle to obtain a single cell suspension. The bone marrow mononuclear cell count (BM-MNC) was determined by counting cells using 3% acetic acid with methylene blue solution (Stem Cell Technologies, Vancouver, British Columbia). For LKS (lineage, cKit, Sca-1) staining to visualize hematopoietic progenitor cells (HPCs) and hematopoietic stem cells (HSCs), whole bone marrow was stained with biotinylated anti-lineage cocktail (anti-Mac1, Gr-1, CD3e, B220, and Ter119), APC-conjugated anti-cKit (clone 2B8), and PECy7-conjugated anti Sca-1 (clone D7) antibodies. Following primary antibody staining, the cells were washed and incubated in PE-conjugated streptavidin secondary antibody to visualize lineage-positive cells. All primary and secondary antibodies were obtained from BD Biosciences (San Jose, Calif.). The samples were acquired using an LSR Fortessa instrument (Becton Dickinson, Franklin Lakes, N.J.) and data was analyzed using FlowJo software (TreeStar, Ashland, Oreg.).
To assess colony-forming ability, whole bone marrow isolated after flushing mouse femurs and tibiae was plated in 12-well plates at a density of 20,000 to 100,000 cells/well in methylcellulose medium (Methocult CF M3434, Stem Cell Technologies, Vancouver, British Columbia) containing recombinant murine IL-3, recombinant murine IL-6, and recombinant human erythropoietin. Cells from all samples were plated in triplicates and incubated at 37° C. in 5% CO2 for 7 days at which time hematopoietic colonies formed (colony-forming units in culture, CFU-Cs) were scored. […]

[3] = test system: HuCD34+ humanized NSG mice, 4 Gy to 4.5 Gy total body irradiation; assay: Peripheral blood CBC at euthanasia in irradiated humanized mice given amifostine; conditions: TBI + Amifostine
Protocol: Blood collection for CBCs (100 μL) was performed by retro-orbital bleeding after anesthesia in EDTA-coated tubes (BD Biosciences, San Jose, Calif.). CBCs were recorded with a Hemavet 950 FS hematology analyzer (Drew Scientific, Dallas, Tex.).
HuCD34^+ “humanized” NSG mice were obtained from Jackson Labs, Bar Harbor, Me. These mice were generated by irradiating each mouse at 1.4 Gy to deplete their bone marrow and injecting each mouse with CD34^+ human HSC. Each mouse was tested for engraftment of human CD45^+ cells and murine CD45^+ cells at 12 weeks following transplantation. Prior to the experiments described herein, the presence of human CD45^+ cells was confirmed in the peripheral blood and bone marrow from untreated control mice using an anti-human CD45 FITC antibody.
The HuCD34^+ mice were treated with saline or amifostine (200 mg/kg of body weight 45 min-1 hr before radiation exposure) and were subsequently treated with 4 Gy to 4.5 Gy of total body irradiation, or were left untreated. Following these treatments, total bone cellularity and the levels of serum miRNAs were determined in the mice. Both CD45 staining of peripheral blood and engraftment analysis of bone marrow was performed when animals became moribund (between 9-14 days after total body radiation) and were sacrificed. The mice were irradiated at approximately 12 weeks after initial assessment of engraftment.

SMILES: NCCCNCCSP(=O)(O)O [amifostine]
- survival (lethally-irradiated mice; amifostine 200 mg/kg 45 minutes prior to 8.5 Gy-total body irradiation vs saline): prolonged survival
- improvement in survival (lethally-irradiated mice; amifostine 250 mg/kg intraperitoneally 24 hours prior to 8 Gy-total body irradiation vs saline, n=8 per group, p=0.0452): 50%
- serum miRNA signature response to treatment [1]: responded to amifostine treatment only in the context of lethal radiation
- number of CFU-Cs [2]: increase
- number of human CD45 positive cells in the bone marrow [2]: increase
- total bone marrow cellularity [2]: increase
- HCT, CBC at euthanasia ([3]; group Avg): 10.93%
- Hb, CBC at euthanasia ([3]; group Avg): 4.27 g/dL
- PLT, CBC at euthanasia ([3]; group Avg): 104.33 K/uL
- RBC, CBC at euthanasia ([3]; group Avg): 2.37 M/uL
- WBC, CBC at euthanasia ([3]; group Avg): 1.22 K/uL
- HCT, CBC at euthanasia ([3]; individual mice (# 8, 9, 13)): 17.00% and 11.00% and 4.80%
- Hb, CBC at euthanasia ([3]; individual mice (# 8, 9, 13)): 4.80 g/dL (2×) and 3.20 g/dL
- PLT, CBC at euthanasia ([3]; individual mice (# 8, 9, 13)): 213 K/uL and 44 K/uL and 56 K/uL
- RBC, CBC at euthanasia ([3]; individual mice (# 8, 9, 13)): 2.55 M/uL and 1.65 M/uL and 2.92 M/uL
- WBC, CBC at euthanasia ([3]; individual mice (# 8, 9, 13)): 1.28 K/uL and 1.19 K/uL and 1.20 K/uL
